According to US20150216955A1, “IMMUNOMODULATORY AGENT AND USES THEREFOR” (The University of Queensland, priority 2012, published 2015):
Where a SMILES comes first, the peptide text is derived from it. Where no end group is shown, it is not given here. [ ]: non-standard residue; d: D form. Cit = NC(=O)NCCC[C@H](N)C(=O)O

What was measured:
[1] = test system: antigen-presenting cells (APC); assay: Pre-incubation of APC with NF-kB, mTOR or Syk inhibitors; T cell cytokine production in response to citrullinated aggrecan peptide; format: cell-based, human; settings: APC pre-incubated 1 h with inhibitor, then LPS; 5 days with CD4+ T cells and 3 or 30 μg/mL Aggrecan peptide 84-103 cit 93
Protocol: Peripheral blood mononuclear cells (PBMC) were extracted from an RA patient with disease duration 18 years, positive anti-CCP and HLA-DRB1*0401 shared epitope. Autologous CD4+ T cells were isolated using immunomagnetic beads. The non-T cell fraction consists of antigen-presenting cells (APC), including dendritic cells, monocytes and B cells; it was treated with Mitomycin C to prevent proliferation. The APC were pre-incubated for 1 h without or with 3 uM BAY7011-82, 20 μg/mL Curcumin (both inhibit NF-kB), 10 ng/mL Rapamycin (inhibits mTOR) or […] Piceatannol (inhibits syk), then incubated with 100 ng/mL LPS for 1 h. The APC were washed 3 times then incubated for 5 days with CD4+ T cells in the presence of 0 μg/mL, 3 μg/mL or 30 μg/mL Aggrecan peptide 84-103 cit 93. Cytokines were analysed in culture supernatants by cytokine bead array.

[2] = Solubility of peptide in aqueous medium; format: physicochemical
CD4+ T cells = assay: Flow cytometry and intracellular cytokine staining after peptide stimulation; format: cell-based, human
Protocol: FIG. 6 is a graphical representation showing cytokine secretion by CD4^+ T cell subsets. PBMC from HLA-DR SE^+ RA patients and healthy controls were incubated with 0 or 30 μg/ml citrullinated fibrinogen or citrullinated aggrecan, stained with mAb directed against CD4, CD28, IFN-γ and IL-6 (A), or CD4, CD45RO, IL-6 and IFN-γ (E) then analyzed by flow cytometry. B: The gating strategy is outlined. C: Fluorescence minus one (FMO) plot showing background staining for intracellular cytokine staining, gated on CD4^+ T cells. D: IL-6 staining of gated CD4^− non-T cells. The proportions in (E) of IL-6^+CD4^+CD45RO^+ T cells were 2.2%, 5.3% and 7.1%, and of IL-6^+CD4^+CD45RO^− T cells were 0.8%, 2.1% and 4% in response to incubation with no peptide, citrullinated fibrinogen and citrullinated aggrecan respectively. Two individual RA patients and 1 healthy control are shown. Data are representative of 2 healthy donors and 5 RA patients.
IL-6 is an important cytokine in RA, which could be produced upon stimulation of PBMC either by T cells or antigen presenting cells. To determine the origin of the cytokines secreted into supernatants of PBMC stimulated by citrullinated peptides, RA PBMC were incubated with citrullinated or native peptides for 5 days, with addition of Brefeldin-A for the last 18 hours, prior to intracellular cytokine staining along with analysis of cell surface markers. CD3^+CD4^+ T cells produced more intra-cellular IFN-γ and IL-6 when incubated with citrullinated aggrecan or fibrinogen relative to incubation in medium alone (FIG. 6A, B). […] In healthy controls, CD28^− cells comprised only a small proportion of the CD4^+ T cells, and cytokine-secreting cells were exclusively CD4^+CD28^+. CD28^− cells were more abundant among CD4^+ PB T cells in some, but not all, RA patients. Where CD4^+CD28^− T cells were present, IL-6 and IFN-γ were secreted by both CD28^− and CD28^+CD4^+ T cells in response to citrullinated peptides. […] IFN-γ^+CD4^+ and IL-6^+CD4^+ T cells included both CD45RO^+ and CD45RO^− cells (FIG. 6E).
PBMC from SE^+ RA patients or healthy controls were incubated with or without peptides at concentrations of 3 and 30 μg/mL for 5 days, with Brefeldin A (Sigma Aldrich) added for the final 18 hours. Cells were stained for CD3-FITC, CD4-APC/Cy7, CD28-FITC, CXCR5-PerCP/Cy5.5 and CD45RO-PerCP/Cy5.5 (Biolegend), followed by permeabilization and staining for intracellular IL-6-APC and IFN-γ-APC (Biolegend). Data were collected on the Gallios flow cytometer and analysed using Kaluza software (Beckman Coulter).

PBMC = assay: Cytokine secretion in day 5 supernatants by Cytometric Bead Array (CBA) after peptide stimulation; format: cell-based, human; settings: for cytokine responses to the epitope: current studies, fibrinogen: long-standing RA patients; for number of RA patients with positive IL-6 response to this epitope only: of 17 RA patients, threshold mean + 2 SD above native peptide response
PBMC or SFMC = format: cell-based, human
[3] = RA PBMC, 5 days, Brefeldin-A last 18 hours

Cc1ccc(S(=O)(=O)/C=C/C#N)cc1 [Bay11-7082, E3((4-methylphenyl)-sulfonyl)-2-propenenitrile]
capacity of APC presenting cit-peptide to induce T cell IL-6 production [1]: partially suppressed

CC(C)C[C@H](NC(=O)[C@H](CC(C)C)NC(=O)[C@@H](NC(=O)[C@@H](N)C(C)C)C(C)C)C(=O)N[C@H](C(=O)N[C@@H](C)C(=O)N[C@H](C(=O)N[C@@H](CCC(=O)O)C(=O)NCC(=O)N[C@@H](CCCNC(N)=O)C(=O)N[C@H](C(=O)N[C@@H](CCCNC(=N)N)C(=O)N[C@H](C(=O)N[C@@H](CC(N)=O)C(=O)N[C@@H](CO)C(=O)N[C@@H](C)C(=O)N[C@@H](Cc1ccc(O)cc1)C(=O)N[C@@H](CCC(N)=O)C(=O)N[C@@H](CC(=O)O)C(=O)N[C@@H](CCCCN)C(=O)O)C(C)C)C(C)C)[C@@H](C)O)C(C)C [citrullinated aggrecan, VVLLVATEGCitVRVNSAYQDK] (HELM PEPTIDE1{V.V.L.L.V.A.T.E.G.[Cit].V.R.V.N.S.A.Y.Q.D.K}$$$$V2.0; N-terminus and C-terminus assumed)
solubility in aqueous medium [2]: relatively insoluble in aqueous medium

QDFIN[Cit]INKLKNS [citrullinated fibrinogen]
proportion of IL-6+CD4+CD45RO- T cells (CD4+ T cells; 30 μg/ml peptide, no peptide 0.8%): 2.1% | proportion of IL-6+CD4+CD45RO+ T cells (CD4+ T cells; 30 μg/ml peptide, no peptide 2.2%): 5.3% | intra-cellular IFN-γ in CD3+CD4+ T cells relative to medium alone (CD4+ T cells; [3]): more | intra-cellular IL-6 in CD3+CD4+ T cells relative to medium alone (CD4+ T cells; [3]): more | healthy controls whose PBMC dose-dependently secreted IL-6 (PBMC; 6 SE+ healthy controls): 3/6 | cytokine responses to the epitope (PBMC): robust cytokine production | number of RA patients with positive IL-6 response to this epitope only (PBMC): 0

QYM[Cit]ADQAAGGLR [citrullinated collagen type II]
number of RA patients with positive IL-6 response to this epitope only (PBMC): 0

SAVRA[Cit]SSVPGVR [citrullinated vimentin 66-78]
cytokine responses to the epitope (PBMC): much weaker cytokine responses

tetanus toxoid
Proliferative responses to tetanus toxoid, RA compared with healthy control PBMC (PBMC or SFMC): significantly lower
